Key:
[1] = system: Egr-1; assay: Hypoxia-driven Egr-1 induction in macrophages (data not shown); format: cell-based
Procedure: (§1) Cell culture and induction of hypoxia. A rat alveolar macrophage cell line (NR8383) was obtained from the ATCC (Manassas, Va.), and cells were grown to 70% confluence in Ham's F-12K medium containing 15% heat-inactivated fetal bovine serum. Cells were made quiescent by serum starvation (0.2%, fetal bovine serum) for 24 hours. The PPAR-γ ligands were obtained from the following sources: troglitazone was provided by Sankyo Pharmaceutical Co. (Tokyo, Japan); and 15-d-PGJ2 was purchased from Cayman Chemical Co. (Ann Arbor, Mich.). The PPAR-α ligand bezafibrate was obtained from Sigma Chemical Co. (St. Louis. Mo.). These PPAR ligands were dissolved in minute quantities of DMSO (final concentration 0.005%). PPAR ligands were added 6 hours prior to induction of hypoxia. Using an environmental chamber described previously (Yan, 1999), cells were subjected to 30 minutes hypoxia (pO2 in the medium ˜12–14 torr. This time was chosen because it has previously been shown that this is the time of maximal Egr-1 expression in hypoxic macrophages. Cells subjected to hypoxia were placed in medium pre-equilibrated with the hypoxic gas mixture just prior to placement in the environmental chamber. Thus, cultures were immersed immediately in the oxygen-deprived environment at the time of medium change, coinciding with time of placement in the chamber.

[2] = system: Egr-1/DNA binding; assay: Electrophoretic mobility gel shift assay on nuclear extracts from NR8383 cells; format: cell-based, rat; details: nuclear extracts of NR8383 cells 30 minutes after hypoxia; 1 or 20 μM 15-d-PGJ2, 20 μM troglitazone, 20 μM bezafibrate; FIG. 1c
Procedure: as §1
Electrophoretic mobility gel shift assay. […]

[3] = system: Egr-1 mRNA; assay: Egr-1 mRNA levels by Northern blotting in hypoxic mononuclear phagocytes; format: cell-based, rat; details: NR8383 cells, ligand added 6 hours before 30 minutes hypoxia; Northern blot, FIG. 1a
Procedure: Cell culture and induction of hypoxia. A rat alveolar macrophage cell line (NR8383) was obtained from the ATCC (Manassas, Va.), and cells were grown to 70% confluence in Ham's F-12K medium containing 15% heat-inactivated fetal bovine serum. Cells were made quiescent by serum starvation (0.2%, fetal bovine serum) for 24 hours. The PPAR-γ ligands were obtained from the following sources: troglitazone was provided by Sankyo Pharmaceutical Co. (Tokyo, Japan); and 15-d-PGJ2 was purchased from Cayman Chemical Co. (Ann Arbor, Mich.). The PPAR-α ligand bezafibrate was obtained from Sigma Chemical Co. (St. Louis. Mo.). These PPAR ligands were dissolved in minute quantities of DMSO (final concentration 0.005%). PPAR ligands were added 6 hours prior to induction of hypoxia. […]

[4] = system: Egr-1 protein; assay: Egr-1 protein expression by Western blotting in hypoxic mononuclear phagocytes; format: cell-based, rat; details: ligand added 6 hours before 30 minutes hypoxia; Western blot, FIG. 1b
Procedure: as §1
Western blotting. […]

[5] = Murine survival following lung ischemia/reperfusion injury; format: in vivo, mouse; details: 1 hour after circulatory exclusion of nonischemic lung
Procedure: Murine ischemia/reperfusion model. C57BL6/J mice (male, 12–15 weeks old) purchased from Jackson Laboratories (Bar Harbor, Me.) were used in these experiments according to a protocol approved by the Institutional Animal Care and Use Committee at Columbia University, in accordance with guidelines of the American Association for the Accreditation of Laboratory Animal Care.
Troglitazone was administered to mice by oral gavage (0.1 mL/mouse) for 7 days at doses of 0, 5, and 100 mg/kg/day, prepared as a suspension in 0.5% methylcellulose solution. For control experiments, methylcellulose solution alone was used for gavage (these experiments are referred to as “vehicle” controls). The ischemia/reperfusion stress followed on day 8. […] Survival was measured 1 hour after circulatory exclusion of the nonoperated lung (by ligating the right hilum), which was performed after both the ischemic and reperfusion (3 hours) periods had elapsed. […]
Statistics. […] Survival was estimated by the Kaplan-Meier method, with differences in survival determined by log-rank analysis. Values are expressed as mean±standard error of the mean (SEM), with differences considered statistically significant when p<0.05.

Structure (SMILES) | hypoxia-driven Egr-1 induction in macrophages [1] | potency of inhibition of hypoxia-induced Egr-1 expression compared with troglitazone ([1]; macrophages, parallel study) | gel shift band associated with Egr-1/DNA binding [2] | Egr-1 mRNA levels after hypoxia [3] | Egr-1 protein levels after hypoxia [4] | survival relative to vehicle-treated mice ([5]; vehicle 10% survival) | survival ([5]; 1 hour ischemia, 3 hours reperfusion, FIG. 4f)
CCCCCC=CC=C1C(=O)C=C[C@@H]1CC=CCCCC(=O)O [15-d-PGJ2, 15-deoxy-Δ^12,14-prostaglandinJ2] | inhibited hypoxia-induced expression of Egr-1 | equal potency as troglitazone | virtually abrogated | significantly reduced | significantly inhibited | – | –
Cc1c(C)c2c(c(C)c1O)CCC(C)(COc1ccc(CC3SC(=O)NC3=O)cc1)O2 (stereo not shown) [troglitazone] | – | – | – | – | – | 4 times | 40%
